Consider twelve compounds from patent US20230121771A1, “A PHARMACEUTICAL COMBINATION OF AN ARTEMISININ COMPOUND, 5-AMINOLEVULINIC ACID OR METHYL-5-AMINOLEVULINIC ACID AND A CHEMOTHERAPEUTIC AGENT” (JLP Health GmbH, priority 2020, published 2023).

Starred links: 1 amine or outer side, 2 acyl side, 3 side chain; linkers in the order of their positions; H or OH if unused. Positions of bridges follow the written chain, without caps; N, C: chain ends. Non-standard residues stand in square brackets, D forms with d. Residues, ends and D or L forms follow the SMILES beside them. Chains are numbered I, II in the order given. Actinocin(9to1) = Cc1c2oc3c(C)ccc(C(=O)[*:1])c3nc-2c(C(=O)[*:2])c(N)c1=O; NMeV = CN[C@H](C(=O)O)C(C)C; Sar = CNCC(=O)O

For data set [1], the system named is cancer cell lines originating from other tissues. Nature of the data set: 6-day cell survival assay, cancer cell lines originating from other tissues (summary). Format: cell-based. The conditions noted are these: lung, liver, breast, pancreas lines. On the procedure:
Cell survival assays (FIGS. 12-19) were performed in 96-well plates in technical duplicates. Treatments started 24 hours post cell plating and lasted for 6-days prior to cell viability assessment with the Cell Titer Glo 2.0 Luminescent assay (Promega, G9242).

Data set [2] relates to mouse ESCs. The data set is described as follows: Cell survival of artemisinin treated mouse embryonic stem cells (Alamar Blue, 48 h). Type of data set: cell-based. The conditions noted are these: artemisinin combined with acifluorfen or 5-ALA (0.5 mM). On the procedure:
For dosage responses, cells were seeded in 96-wells (25.000/ 96-well, in triplicate -where indicated) and subjected to compounds for 48 h. Cell viability was assessed using automated cell counting (high-throughput flow cytometry), Alamar Blue staining (Invitrogen, DAL1100) or CellTiter-Glo Luminescent Assay (Promega, G7570, according to the manufacturer’s protocol) respectively.

Data set [3] relates to neuroblastoma cells (SHSY5Y), Jurkat and HL-60 cells. The data set is described as follows: ROS levels by Dihydroethidium (DHE) staining and flow cytometry in cell lines. Format: cell-based. Conditions: artemisinin alone; Jurkat and HL-60 cells, 48 h. On the procedure:
Treated cells were collected, washed with 1x HBSS (without Ca2+ and Mg2+), incubated with 1mM DHE (Dihydroethidium (Hydroethidine), Invitrogen, D11347) in 1x HBSS for 45 min at 37° C., washed twice and counterstained with DAPI or a viability dye (eBioscience™ Fixable Viability Dye eFluor™ 780, 65-0865-18) for 10 min on ice. Cells were then collected, strained and analysed using flow cytometry for DHE in the red fluorescent spectrum (PE channel).

The test system of data set [4] is human cerebral tumor organoids (CNS-PNET). Nature of the data set: Compound profiling in CNS-PNET cerebral tumor organoids (GFP-positive tumor cells). Format: cell-based. Conditions: very high concentrations, compound alone. The method, then:
Tumor initiation was induced by either oncogene amplification, using a Sleeping Beauty (SB) transposase, or mutation of tumor suppressor genes, using the CRISPR-Cas9 system in day 10 old embryoid bodies (EBs). Plasmids carrying the transposase as well as GFP and the desired oncogenes or expressing Cas9 nuclease were introduced by electroporation. In brief, a mixture of 1 μg DNA and 100 μl nucleofector solution was added to 10 EBs and transferred to a nucleofection cuvette. The Lonza Nucleofector 2b and the A-023 program were used for electroporation/ nucleofection. Thereafter, EBs were transferred into 10 cm dishes containing differentiation media containing vitamin A and embedded into Matrigel 24 hours later. Two different types of tumors were initiated {Bian:2018gs}: Central nervous system primitive neuroectodermal tumors (CNS-PNET) were induced by the overexpression of Myc. Glioblastoma-like tumor group 2 (GBM-2) was caused by mutagenesis of the tumor suppressor genes p53, NF1 and PTEN. All plasmids were designed by Shan Bian {Bian, S. et al. Genetically engineered cerebral organoids model brain tumor formation. Nat. Methods 15, 631-639 (2018)}. Cerebral tumor organoids were treated with different compounds and the survival and growth of transformed as well as untransformed neurons was monitored. Fluorescence labeling of tumor cells allowed clear distinguishability of transformed cells as compared to non-labeled throughout the experiment using brightfield microscopy, as well as fluorescence imaging. The transformed tumor tissue and untransformed neurons within the same organoid was monitored using fluorescence imaging, as well as brightfield microscopy throughout the experiment. At the endpoint of the treatment (d5 or d7 respectively), the number of GFP-positive cells was assessed by flow cytometry. Cerebral (tumor) organoids were enzymatically and mechanically dissociated using 1x trypsin, 35-45 min incubation at 37° C., and gentle shaking. […] Single cells in suspension were counterstained with DAPI or a viability dye (eBioscienceTM Fixable Viability Dye eFluorTM 780, 65-0865-18), and analysed using flow cytometry (BD LSRFortessa HTS Cell Analyzer). The amounts of GFP-positive cells were analyzed. […] Brightfield and green fluorescence images were taken from the same area. Additionally, for image analyses, the Celldiscoverer 7 (Zeiss), a fully integrated high-end automated live cell imaging system, was used. Cerebral organoids were fixed in 4% PFA (room temperature, 1 h), incubated with 30% sucrose (4° C., o/n), OCT (Tissue-tek OCT Compound, […], 4583) embedded and 20 μm sections were cryostat cut (-12/-14° C.). […] Fluorescence Mounting Medium (Dako, S302380) was used for mounting the sample slides. […]

The subject of data set [5] is colorectal cancer (CRC) cells. Conditions: reported in literature; cited from earlier work.
In data set [6] the test system is mouse ESCs. Nature of the data set: Competitive growth assay of wild-type and knockout sister ESC clones in presence of artemisinin. Type of data set: cell-based. The conditions noted are these: mixed labelled cells, artemisinin exposure, flow cytometry. The method, then: Haploid ESCs harbouring gene traps in nomic introns were seeded at low density in normal ESC growth medium and infected for 12 h with two viruses, one encoding mCherry plus Cre recombinase and the other coding for GFP, both together with puromycin (Invivogen, ant-pr-1). Infected cells were selected (final concentration of puromycin, 1 µg/ml) after 24 h and expanded. Ratios of GFP- to mCherry/Cre-expressing cells in the presence and absence of artemisinin were determined using high-throughput flow cytometry (BD LSRFortessa HTS Cell Analyzer).

Data set [7] relates to human glioblastoma-like neoplastic organoid model. Nature of the data set: Compound profiling in human glioblastoma-like neoplastic organoid model (p53, NF1, PTEN mutated). The conditions noted are these: compound alone. Format: cell-based. The method, then: Tumor initiation was induced by either oncogene amplification, using a Sleeping Beauty (SB) transposase, or mutation of tumor suppressor genes, using the CRISPR-Cas9 system in day 10 old embryoid bodies (EBs). Plasmids carrying the transposase as well as GFP and the desired oncogenes or expressing Cas9 nuclease were introduced by electroporation. In brief, a mixture of 1 μg DNA and 100 μl nucleofector solution was added to 10 EBs and transferred to a nucleofection cuvette. The Lonza Nucleofector 2b and the A-023 program were used for electroporation/ nucleofection. […] Cerebral tumor organoids were treated with different compounds and the survival and growth of transformed as well as untransformed neurons was monitored. Fluorescence labeling of tumor cells allowed clear distinguishability of transformed cells as compared to non-labeled throughout the experiment using brightfield microscopy, as well as fluorescence imaging. The transformed tumor tissue and untransformed neurons within the same organoid was monitored using fluorescence imaging, as well as brightfield microscopy throughout the experiment. At the endpoint of the treatment (d5 or d7 respectively), the number of GFP-positive cells was assessed by flow cytometry. […] Brightfield and green fluorescence images were taken from the same area. […]

As to `O=c1[nH]cc(F)c(=O)[nH]1` [5-fluorouracil], the “effect of the chemotherapeutic agent when combined with the double combination ART/DHA/ARS with 5-ALA” value in data set [1] was “enhances”.
As to `O=C(O)c1cc(Oc2ccc(C(F)(F)F)cc2Cl)ccc1[N+](=O)[O-]` [acifluorfen], the “susceptibility to artemisinin (cell survival)” value in data set [2] is “increased resistance to artemisinin”.
Turning to `C[C@@H]1CC[C@H]2[C@@H](C)C(=O)O[C@@H]3O[C@@]4(C)CC[C@@H]1[C@]32OO4` [artemisinin], the “ROS levels (DHE)” value in data set [3] is given as “increased levels of ROS”. Further, the “growth of GFP-positive tumor organoids” value in data set [4] is “notable growth inhibition”. Besides, the cytotoxicity result in data set [5] is “specific cytotoxicity”. The “relative growth of wild-type (mCherry_Cre) and knockout (GFP) sister cell clones” value in data set [6] is “selective loss of wild-type (mCherry_Cre) and strong expansion of knockout cells (GFP)”. In addition, the “survival of untransformed and transformed cells” value in data set [7] was “little effect on the survival of untransformed cells as well as transformed cells”.
`N.N.O=C([O-])C1(C(=O)[O-])CCC1.[Pt+2]` [carboplatin]: the “effect of the chemotherapeutic agent when combined with the double combination ART/DHA/ARS with 5-ALA” value in data set [1] is reported as “enhances”.
The same measure, in the same setting: under `N.N.[Cl][Pt][Cl]` [cisplatin] stands “enhances”; under `Cc1c2oc3c(C)ccc(C(=O)N[C@@H]4C(=O)N[C@H](C(C)C)C(=O)N5CCC[C@H]5C(=O)N(C)CC(=O)N(C)[C@@H](C(C)C)C(=O)O[C@@H]4C)c3nc-2c(C(=O)N[C@@H]2C(=O)N[C@H](C(C)C)C(=O)N3CCC[C@H]3C(=O)N(C)CC(=O)N(C)[C@@H](C(C)C)C(=O)O[C@@H]2C)c(N)c1=O` [dactinomycin] (I: T[dV]P[Sar][NMeV] / II: T[dV]P[Sar][NMeV]; ester I:1-I:C, II:1-II:C; linker I:N-II:N via Actinocin(9to1)), “enhances”; under `COc1cccc2c1C(=O)c1c(O)c3c(c(O)c1C2=O)C[C@@](O)(C(=O)CO)C[C@@H]3O[C@H]1C[C@H](N)[C@H](O)[C@H](C)O1` [doxorubicin], “enhances”.
Still for that read-out and setting: next, `COc1cccc2c1C(=O)c1c(O)c3c(c(O)c1C2=O)C[C@@](O)(C(=O)CO)C[C@@H]3O[C@H]1C[C@H](N)[C@@H](O)[C@H](C)O1` [epirubicin]: “enhances”; `COC(=O)C[C@](O)(CCCC(C)(C)O)C(=O)O[C@@H]1C(OC)=C[C@]23CCCN2CCc2cc4c(cc2[C@H]13)OCO4` [homoharringtonin]: “enhances”.
Still for that read-out and setting: under `O=NN(CCCl)C(=O)NC1CCCCC1` [lomustine] stands “enhances”; under `CC(C)[C@]12O[C@H]1[C@@H]1O[C@]13[C@]1(O[C@H]1C[C@H]1C4=C(CC[C@@]13C)C(=O)OC4)[C@@H]2O` [triptolide], “enhances”; under vinorebine, “enhances”.
